The NIST ThermoML archive (doi:10.1016/j.jct.2015.09.029)

Test: mn = molality of the nth substance listed, in mol/kg
Conditions: 100 kPa, Liquid; for viscosity: Capillary tube (Ostwald / Ubbelohde) method; for speed of sound: Frequency=2 MHz, Linear variable-path acoustic interferometer; for mass density: Vibrating tube method

CCCC[P+](CCCC)(CCCC)CCCC.[Cl-] [tetrabutylphosphonium chloride] + O
Conditions | mass density [kg/m3] | speed of sound [m/s] | viscosity [mPa·s]
298.15 K, m1 = 0.0249 | 996.83 | 1506.4 | 0.9234
298.15 K, m1 = 0.0773 | 996.44 | 1520 | 0.9925
298.15 K, m1 = 0.1592 | 995.93 | 1541.6 | 1.101
298.15 K, m1 = 0.2659 | 995.41 | 1567.7 | 1.241
298.15 K, m1 = 0.3842 | 994.99 | 1593.7 | 1.397
298.15 K, m1 = 0.4509 | 994.8 | 1607.4 | 1.486
298.15 K, m1 = 0.504 | 994.67 | 1617.5 | 1.556
298.15 K, m1 = 0.5771 | 994.5 | 1630.3 | 1.652
303.15 K, m1 = 0.0249 | 995.41 | 1518.2 | 0.8256
303.15 K, m1 = 0.0773 | 994.97 | 1532.4 | 0.8843
303.15 K, m1 = 0.1592 | 994.37 | 1551.9 | 0.9761
303.15 K, m1 = 0.2659 | 993.73 | 1575.2 | 1.095
303.15 K, m1 = 0.3842 | 993.17 | 1598.2 | 1.228
303.15 K, m1 = 0.4509 | 992.9 | 1610.1 | 1.302
303.15 K, m1 = 0.504 | 992.7 | 1619.5 | 1.362
303.15 K, m1 = 0.5771 | 992.42 | 1633.2 | 1.444
308.15 K, m1 = 0.0295 | 993.74 | 1529.8 | 0.7476
308.15 K, m1 = 0.0842 | 993.23 | 1541.2 | 0.7998
308.15 K, m1 = 0.1722 | 992.52 | 1559.9 | 0.8836
308.15 K, m1 = 0.2979 | 991.68 | 1585.8 | 1.004
308.15 K, m1 = 0.3554 | 991.35 | 1595.6 | 1.058
308.15 K, m1 = 0.4266 | 990.98 | 1607.8 | 1.126
308.15 K, m1 = 0.4508 | 990.86 | 1611.9 | 1.149
308.15 K, m1 = 0.5619 | 990.34 | 1628.9 | 1.255
313.15 K, m1 = 0.0295 | 991.9 | 1537.3 | 0.6773
313.15 K, m1 = 0.0842 | 991.36 | 1547.8 | 0.722
313.15 K, m1 = 0.1722 | 990.57 | 1566.5 | 0.7937
313.15 K, m1 = 0.2979 | 989.61 | 1588.4 | 0.8964
313.15 K, m1 = 0.3554 | 989.21 | 1597.3 | 0.9432
313.15 K, m1 = 0.4266 | 988.76 | 1607.8 | 1.001
313.15 K, m1 = 0.4508 | 988.61 | 1611.4 | 1.021
313.15 K, m1 = 0.5619 | 987.95 | 1627.3 | 1.112

CCCC[P+](C)(CCCC)CCCC.COS(=O)(=O)[O-] [tributylmethylphosphonium methyl sulfate] + O
Conditions | mass density [kg/m3] | speed of sound [m/s] | viscosity [mPa·s]
298.15 K, m1 = 0.0282 | 997.65 | 1504.7 | 0.9199
298.15 K, m1 = 0.0438 | 997.98 | 1507.9 | 0.9362
298.15 K, m1 = 0.0564 | 998.25 | 1510.3 | 0.9494
298.15 K, m1 = 0.0658 | 998.45 | 1512.1 | 0.9592
298.15 K, m1 = 0.0847 | 998.86 | 1515.5 | 0.9789
298.15 K, m1 = 0.113 | 999.46 | 1520.9 | 1.009
298.15 K, m1 = 0.174 | 1000.77 | 1533.3 | 1.073
298.15 K, m1 = 0.2336 | 1002.05 | 1545.1 | 1.135
298.15 K, m1 = 0.2813 | 1003.07 | 1554.3 | 1.185
303.15 K, m1 = 0.0282 | 996.22 | 1517.7 | 0.8225
303.15 K, m1 = 0.0438 | 996.54 | 1521.6 | 0.8362
303.15 K, m1 = 0.0564 | 996.8 | 1524.6 | 0.8473
303.15 K, m1 = 0.0658 | 996.99 | 1526.7 | 0.8555
303.15 K, m1 = 0.0847 | 997.38 | 1530.7 | 0.8722
303.15 K, m1 = 0.113 | 997.96 | 1536.2 | 0.8971
303.15 K, m1 = 0.174 | 999.21 | 1547.8 | 0.951
303.15 K, m1 = 0.2336 | 1000.44 | 1558.6 | 1.004
303.15 K, m1 = 0.2813 | 1001.42 | 1566.7 | 1.046
308.15 K, m1 = 0.0282 | 994.58 | 1527.2 | 0.7395
308.15 K, m1 = 0.0438 | 994.89 | 1530.9 | 0.7505
308.15 K, m1 = 0.0564 | 995.14 | 1533.7 | 0.7595
308.15 K, m1 = 0.0658 | 995.32 | 1535.9 | 0.7662
308.15 K, m1 = 0.0847 | 995.7 | 1539.9 | 0.7796
308.15 K, m1 = 0.113 | 996.25 | 1545.9 | 0.7997
308.15 K, m1 = 0.174 | 997.45 | 1557.5 | 0.8432
308.15 K, m1 = 0.2336 | 998.62 | 1568.4 | 0.8857
308.15 K, m1 = 0.2813 | 999.56 | 1576.3 | 0.9199
313.15 K, m1 = 0.0282 | 992.74 | 1536.3 | 0.6725
313.15 K, m1 = 0.0438 | 993.04 | 1540 | 0.6832
313.15 K, m1 = 0.0564 | 993.27 | 1542.7 | 0.6919
313.15 K, m1 = 0.0658 | 993.45 | 1544.8 | 0.6983
313.15 K, m1 = 0.0847 | 993.81 | 1548.8 | 0.7113
313.15 K, m1 = 0.113 | 994.34 | 1554.2 | 0.7308
313.15 K, m1 = 0.174 | 995.49 | 1564.7 | 0.7728
313.15 K, m1 = 0.2336 | 996.62 | 1572 | 0.814
313.15 K, m1 = 0.2813 | 997.52 | 1578 | 0.847

CC(C)C[P+](C)(CC(C)C)CC(C)C.Cc1ccc(S(=O)(=O)[O-])cc1 [triisobutylmethylphosphonium p-toluenesulfonate] + O
Conditions | mass density [kg/m3] | speed of sound [m/s] | viscosity [mPa·s]
298.15 K, m1 = 0.0237 | 997.74 | 1507.2 | 0.9191
298.15 K, m1 = 0.0468 | 998.42 | 1513.7 | 0.9471
298.15 K, m1 = 0.0663 | 999 | 1518.8 | 0.9707
298.15 K, m1 = 0.0901 | 999.7 | 1524.8 | 0.9996
298.15 K, m1 = 0.1848 | 1002.5 | 1546.4 | 1.115
298.15 K, m1 = 0.2883 | 1005.48 | 1566.5 | 1.241
298.15 K, m1 = 0.3948 | 1008.42 | 1586.1 | 1.373
298.15 K, m1 = 0.4278 | 1009.28 | 1592.4 | 1.413
298.15 K, m1 = 0.478 | 1010.56 | 1601.7 | 1.475
298.15 K, m1 = 0.5156 | 1011.48 | 1608.3 | 1.522
303.15 K, m1 = 0.0237 | 996.31 | 1518.8 | 0.8224
303.15 K, m1 = 0.0468 | 996.97 | 1525.3 | 0.8466
303.15 K, m1 = 0.0663 | 997.53 | 1530.8 | 0.8669
303.15 K, m1 = 0.0901 | 998.21 | 1536.6 | 0.8919
303.15 K, m1 = 0.1848 | 1000.89 | 1555.9 | 0.9914
303.15 K, m1 = 0.2883 | 1003.76 | 1574.5 | 1.101
303.15 K, m1 = 0.3948 | 1006.58 | 1590.7 | 1.214
303.15 K, m1 = 0.4278 | 1007.42 | 1596.2 | 1.249
303.15 K, m1 = 0.478 | 1008.64 | 1604 | 1.302
303.15 K, m1 = 0.5156 | 1009.52 | 1609.4 | 1.343
308.15 K, m1 = 0.0253 | 994.73 | 1528.8 | 0.7415
308.15 K, m1 = 0.053 | 995.49 | 1536.4 | 0.7656
308.15 K, m1 = 0.0791 | 996.21 | 1541.7 | 0.7883
308.15 K, m1 = 0.1003 | 996.79 | 1545.6 | 0.8068
308.15 K, m1 = 0.2056 | 999.66 | 1566.2 | 0.8989
308.15 K, m1 = 0.2689 | 1001.35 | 1577.9 | 0.9546
308.15 K, m1 = 0.3193 | 1002.66 | 1587.2 | 0.999
308.15 K, m1 = 0.3643 | 1003.8 | 1592.7 | 1.039
308.15 K, m1 = 0.4345 | 1005.51 | 1602 | 1.101
308.15 K, m1 = 0.5175 | 1007.42 | 1612.8 | 1.175
313.15 K, m1 = 0.0253 | 992.9 | 1538.7 | 0.6717
313.15 K, m1 = 0.053 | 993.66 | 1545.1 | 0.692
313.15 K, m1 = 0.0791 | 994.36 | 1551.5 | 0.7111
313.15 K, m1 = 0.1003 | 994.92 | 1556.3 | 0.7266
313.15 K, m1 = 0.2056 | 997.66 | 1575.1 | 0.8042
313.15 K, m1 = 0.2689 | 999.26 | 1584.7 | 0.851
313.15 K, m1 = 0.3193 | 1000.5 | 1592.3 | 0.8883
313.15 K, m1 = 0.3643 | 1001.59 | 1598.1 | 0.9218
313.15 K, m1 = 0.4345 | 1003.25 | 1607.3 | 0.9741
313.15 K, m1 = 0.5175 | 1005.14 | 1617.1 | 1.036
